The text below walks through data of US10604555B2, “GIP derivatives and uses thereof” (priority 2018, dated 2020).

Structures are written as SMILES. pEC50: −log10 of the molar value. *1 amine or outer side, *2 acyl side, *3 side chain or, on linkers, in order; H or OH if unused. Where a SMILES comes first, the peptide text is derived from it. Side-chain parts run from the residue outwards. [ ]: non-standard residue; d: D form. The star is where a group is joined. C18 diacid = O=C(O)CCCCCCCCCCCCCCCCC(=O)*; γGlu = O=C(O)[C@H](CCC(=O)[*:2])N[*:1]; Nle = CCCC[C@H](N)C(=O)O; AEEA = NCCOCCOCC(=O)O; Aib = CC(C)(N)C(=O)O

The test deals with T1, human GIP receptor (Homo sapiens, UniProt P48546).
T1 construct: expressed in transfected cells; host or cells: BHK (parent line BHKTS13), BHK CRE luc2P hGIPR clone #5
T1 sequence (P48546 22-466): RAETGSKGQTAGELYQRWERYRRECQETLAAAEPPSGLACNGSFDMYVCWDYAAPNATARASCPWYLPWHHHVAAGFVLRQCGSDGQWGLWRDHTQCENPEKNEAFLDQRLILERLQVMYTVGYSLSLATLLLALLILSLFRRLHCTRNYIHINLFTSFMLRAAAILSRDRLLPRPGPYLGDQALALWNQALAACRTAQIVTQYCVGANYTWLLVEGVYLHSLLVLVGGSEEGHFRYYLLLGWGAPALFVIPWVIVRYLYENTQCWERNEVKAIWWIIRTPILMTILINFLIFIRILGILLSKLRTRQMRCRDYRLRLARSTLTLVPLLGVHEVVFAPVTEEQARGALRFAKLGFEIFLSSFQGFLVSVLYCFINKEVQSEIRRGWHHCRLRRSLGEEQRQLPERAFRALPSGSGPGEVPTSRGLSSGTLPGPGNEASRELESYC
Briefly: In vitro potency (CRE luciferase; whole cells), BHK CRE luc2P hGIPR. It is filed as cell-based. Conditions: 0.2% HSA. As to the method: In Vitro Potency (CRE Luciferase; Whole Cells)
The in vitro potency is the measure of human GIP, GLP-1 or glucagon receptor activation, respectively, in a whole cell assay.
In vitro potency was determined by measuring the response of the human GIP, GLP-1 or glucagon receptor in a reporter gene assay in individual cell lines. […] When the respective receptor is activated it results in the production of cAMP, which in turn results in the luciferase protein being expressed. When assay incubation is completed the luciferase substrate (luciferin) is added and the enzyme converts luciferin to oxyluciferin to produce bioluminescence. The luminescence is measured as the readout for the assay.
The cells were derived from a clone containing the CRE luciferase element and were established by further transfection with the respective receptor to obtain the current clone.
The cells were cultured at 5% CO2 in Cell Culture Medium. They were aliquoted and stored in liquid nitrogen. The cells were kept in passage and were seeded out the day before each assay.
The Assay Buffer consisted of 1% ovalbumin and 0.1% Pluronic F-68 in Assay Medium with the addition of human serum albumin at twice the indicated concentrations.
1) Cells were plated at 5000 cells/well and incubated overnight.
2) Cells were washed three times in PBS.
3) Assay Medium (50 μl aliquot) with or without serum albumin was added to each well in the assay plate.
4) Stocks of the test compounds and reference compounds were diluted to a concentration of 0.2 μM in Assay Buffer. […] 8) The cells were washed three times with PBS plus some liquid in each well. 9) A 100 μl aliquot of steadylite plus reagent was added to each well of the assay plate (reagent was light sensitive). 10) Each assay plate was covered with aluminum foil to protect it from light and shaken for 30 min at room temperature. 11) Each assay plate was read in a microtiter plate reader. Calculations and Results
The data from the microtiter plate reader was transferred to GraphPad Prism software. The software performs a non-linear regression (log(agonist) vs response).
A minimum of two replicates was measured for each sample. The reported values are averages of the replicates.

Broadly, the pEC50 is the EC50 on a negative log10 scale, so that one unit is a factor of ten. The low end stands for a large EC50, the high end for a small EC50.

In turn, `CC[C@H](C)[C@H](NC(=O)[C@H](CO)NC(=O)[C@H](Cc1ccc(O)cc1)NC(=O)[C@H](CC(=O)O)NC(=O)[C@H](CO)NC(=O)[C@@H](NC(=O)[C@H](Cc1ccccc1)NC(=O)[C@@H](NC(=O)CNC(=O)[C@H](CCC(=O)O)NC(=O)[C@H](C)NC(=O)[C@@H](Cc1ccc(O)cc1)NC(C)=O)[C@@H](C)O)[C@@H](C)CC)C(=O)N[C@@H](C)C(=O)N[C@@H](CC(=O)O)C(=O)N[C@@H](CC(=O)O)C(=O)N[C@@H](CCCCN)C(=O)N[C@H](C(=O)N[C@@H](CCCNC(=N)N)C(=O)N[C@@H](CCC(N)=O)C(=O)N[C@@H](CCC(=O)O)C(=O)N[C@@H](CC(=O)O)C(=O)N[C@@H](Cc1ccccc1)C(=O)N[C@H](C(=O)N[C@@H](CCCCNC(=O)COCCOCCNC(=O)COCCOCCNC(=O)CC[C@H](NC(=O)CCCCCCCCCCCCCCCCC(=O)O)C(=O)O)C(=O)N[C@@H](Cc1c[nH]c2ccccc12)C(=O)N[C@@H](CC(C)C)C(=O)N[C@@H](CC(C)C)C(=O)N[C@@H](C)C(=O)N[C@@H](CCC(N)=O)C(=O)N[C@@H](CCCCN)C(=O)NCC(=O)O)C(C)C)[C@@H](C)CC` [Compound 19, N{1}-acetyl,N{Epsilon-24}-[2-[2-[2-[[2-[2-[2-[[(4S)-4-carboxy-4-(17-carboxyheptadecanoylamino)butanoyl]amino]ethoxy]ethoxy]acetyl]amino]ethoxy]ethoxy]acetyl]-[D-Tyr1,Asp14,Arg18,Glu20, Lys24]-hGIP(1-31)] (Ac-[dY]AEGTFISDYSIADDKIRQEDFVK([AEEA-AEEA-γGlu-C18 diacid])WLLAQKG-OH; C-terminus assumed) showed a negative-log EC50 (pEC50) of 10.04.
Next, `CCCC[C@H](NC(=O)[C@H](C)NC(=O)[C@@H](NC(=O)[C@H](CO)NC(=O)[C@H](Cc1ccc(O)cc1)NC(=O)[C@H](CC(=O)O)NC(=O)[C@H](CO)NC(=O)[C@@H](NC(=O)[C@H](Cc1ccccc1)NC(=O)[C@@H](NC(=O)CNC(=O)[C@H](CCC(=O)O)NC(=O)[C@H](C)NC(=O)[C@@H](Cc1ccc(O)cc1)NC(C)=O)[C@@H](C)O)[C@@H](C)CC)[C@@H](C)CC)C(=O)N[C@@H](CC(=O)O)C(=O)N[C@@H](CCCCN)C(=O)N[C@H](C(=O)N[C@@H](CCCNC(=N)N)C(=O)N[C@@H](CCC(N)=O)C(=O)N[C@@H](CCC(=O)O)C(=O)N[C@@H](CC(=O)O)C(=O)N[C@@H](Cc1ccccc1)C(=O)N[C@H](C(=O)N[C@@H](CCCCNC(=O)COCCOCCNC(=O)COCCOCCNC(=O)CC[C@H](NC(=O)CCCCCCCCCCCCCCCCC(=O)O)C(=O)O)C(=O)N[C@@H](Cc1c[nH]c2ccccc12)C(=O)N[C@@H](CC(C)C)C(=O)N[C@@H](CC(C)C)C(=O)N[C@@H](C)C(=O)N[C@@H](CCC(N)=O)C(=O)N[C@@H](CCCCN)C(=O)NCC(=O)O)C(C)C)[C@@H](C)CC` [Compound 16, N{1}-acetyl,N{Epsilon-24}-[2-[2-[2-[[2-[2-[2-[[(4S)-4-carboxy-4-(17-carboxy-heptadecanoylamino)butanoyl]amino]ethoxy]ethoxy]acetyl]amino]ethoxy]ethoxy]acetyl]-[D-Tyr1,Nle14,Arg18,Glu20,Lys24]-hGIP(1-31)]: 10.60.
`CCCC[C@H](NC(=O)[C@H](C)NC(=O)[C@@H](NC(=O)[C@H](CO)NC(=O)[C@H](Cc1ccc(O)cc1)NC(=O)[C@H](CC(=O)O)NC(=O)[C@H](CO)NC(=O)[C@@H](NC(=O)[C@H](Cc1ccccc1)NC(=O)[C@@H](NC(=O)CNC(=O)[C@H](CCC(=O)O)NC(=O)[C@H](C)NC(=O)[C@H](Cc1ccc(O)cc1)NC(C)=O)[C@@H](C)O)[C@@H](C)CC)[C@@H](C)CC)C(=O)N[C@@H](CC(=O)O)C(=O)N[C@@H](CCCCN)C(=O)N[C@H](C(=O)N[C@@H](CCCNC(=N)N)C(=O)N[C@@H](CCC(N)=O)C(=O)N[C@@H](CCC(N)=O)C(=O)N[C@@H](CC(=O)O)C(=O)N[C@@H](Cc1ccccc1)C(=O)N[C@H](C(=O)N[C@@H](CCCCNC(=O)CC[C@H](NC(=O)CC[C@H](NC(=O)CC[C@H](NC(=O)CCCCCCCCCCCCCCCCC(=O)O)C(=O)O)C(=O)O)C(=O)O)C(=O)N[C@@H](Cc1c[nH]c2ccccc12)C(=O)N[C@@H](CC(C)C)C(=O)N[C@@H](CC(C)C)C(=O)N[C@@H](C)C(=O)N[C@@H](CCC(N)=O)C(=O)N[C@@H](CCCCN)C(=O)NCC(=O)O)C(C)C)[C@@H](C)CC` [Compound 18, N{1}-acetyl,N{Epsilon-24}-[(4S)-4-carboxy-4-[[(4S)-4-carboxy-4-[[(4S)-4-carboxy-4-(17-carboxyheptadecanoylamino)butanoyl]amino]butanoyl]amino]butanoyl]-[Nle14,Arg18,Lys24]-hGIP(1-31)] gave a pEC50 of 9.26.
Next, `CCCC[C@H](NC(=O)[C@H](C)NC(=O)[C@@H](NC(=O)[C@H](CO)NC(=O)[C@H](Cc1ccc(O)cc1)NC(=O)[C@H](CC(=O)O)NC(=O)[C@H](CO)NC(=O)[C@@H](NC(=O)[C@H](Cc1ccccc1)NC(=O)[C@@H](NC(=O)CNC(=O)[C@H](CCC(=O)O)NC(=O)C(C)(C)NC(=O)[C@@H](N)Cc1ccc(O)cc1)[C@@H](C)O)[C@@H](C)CC)[C@@H](C)CC)C(=O)N[C@@H](CC(=O)O)C(=O)N[C@@H](CCCCN)C(=O)N[C@H](C(=O)N[C@@H](Cc1c[nH]cn1)C(=O)N[C@@H](CCC(N)=O)C(=O)N[C@@H](CCC(=O)O)C(=O)N[C@@H](CC(=O)O)C(=O)N[C@@H](Cc1ccccc1)C(=O)N[C@H](C(=O)N[C@@H](CCCCNC(=O)CC[C@H](NC(=O)CC[C@H](NC(=O)CC[C@H](NC(=O)CC[C@H](NC(=O)CCCCCCCCCCCCCCCCC(=O)O)C(=O)O)C(=O)O)C(=O)O)C(=O)O)C(=O)N[C@@H](Cc1c[nH]c2ccccc12)C(=O)N[C@@H](CC(C)C)C(=O)N[C@@H](CC(C)C)C(=O)N[C@@H](C)C(=O)N[C@@H](CCC(N)=O)C(=O)N[C@@H](CCCCN)C(=O)NCC(=O)O)C(C)C)[C@@H](C)CC` [Compound 20, N{Epsilon-24}-[(4S)-4-carboxy-4-[[(4S)-4-carboxy-4-[[(4S)-4-carboxy-4-[[(4S)-4-carboxy-4-(17-carboxyheptadecanoylamino)butanoyl]amino]butanoyl]amino]butanoyl]-amino]butanoyl]-[Aib2,Nle14,Glu20,Lys24]-hGIP(1-31)] (H-Y[Aib]EGTFISDYSIA[Nle]DKIHQEDFVK([γGlu-γGlu-γGlu-γGlu-C18 diacid])WLLAQKG-OH; N-terminus and C-terminus assumed): 9.80.
In turn, `CCCC[C@H](NC(=O)[C@H](C)NC(=O)[C@@H](NC(=O)[C@H](CO)NC(=O)[C@H](Cc1ccc(O)cc1)NC(=O)[C@H](CC(=O)O)NC(=O)[C@H](CO)NC(=O)[C@@H](NC(=O)[C@H](Cc1ccccc1)NC(=O)[C@@H](NC(=O)CNC(=O)[C@H](CCC(=O)O)NC(=O)C(C)(C)NC(=O)[C@@H](N)Cc1ccc(O)cc1)[C@@H](C)O)[C@@H](C)CC)[C@@H](C)CC)C(=O)N[C@@H](CC(=O)O)C(=O)N[C@@H](CCCCN)C(=O)N[C@H](C(=O)N[C@@H](CCCNC(=N)N)C(=O)N[C@@H](CCC(N)=O)C(=O)N[C@@H](CCC(N)=O)C(=O)N[C@@H](CC(=O)O)C(=O)N[C@@H](Cc1ccccc1)C(=O)N[C@H](C(=O)N[C@@H](CCCCNC(=O)CC[C@H](NC(=O)CC[C@H](NC(=O)CC[C@H](NC(=O)CCCCCCCCCCCCCCCCC(=O)O)C(=O)O)C(=O)O)C(=O)O)C(=O)N[C@@H](Cc1c[nH]c2ccccc12)C(=O)N[C@@H](CC(C)C)C(=O)N[C@@H](CC(C)C)C(=O)N[C@@H](C)C(=O)N[C@@H](CCC(N)=O)C(=O)N[C@@H](CCCCN)C(=O)NCC(=O)N[C@@H](CCCCN)C(=O)N[C@@H](CCC(=O)O)C(=O)N[C@@H](CC(N)=O)C(=O)N[C@@H](CC(=O)O)C(=O)N[C@@H](Cc1c[nH]c2ccccc12)C(=O)N[C@@H](CCCCN)C(=O)N[C@@H](Cc1c[nH]cn1)C(=O)N[C@@H](CC(N)=O)C(=O)N[C@H](C(=O)N[C@H](C(=O)N[C@@H](CCC(N)=O)C(=O)O)[C@@H](C)O)[C@@H](C)CC)C(C)C)[C@@H](C)CC` [Compound 34, N{Epsilon-24}-[(4S)-4-carboxy-4-[[(4S)-4-carboxy-4-[[(4S)-4-carboxy-4-(17-carboxyheptadecanoylamino)butanoyl]amino]butanoyl]amino]butanoyl]-[Aib2,Nle14,Arg18,Lys24,Glu33]-hGIP] had a pEC50 of 10.70.
